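Briefly, cells in 96-well plates were exposed to five compound concentrations for 48 h, and endpoints were estimated by linear interpolation. At the TGI there is no net growth.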 Where only a bound is given, the exact number is not on record here.

The record followed here is PubChem BioAssay (NCI).

Test systems include A498 renal; COLO 205 colon; HCT-116 colon; HL-60(TB) leukemia; HOP-62 NSCLC; HT29 colon; MOLT-4 leukemia; NCI/ADR-RES ovarian; SK-MEL-5 melanoma; SNB-19 CNS.
Assay in all cases: growth of human tumour cells (NCI), 48 h

Regarding `COC(c1ccsc1)C(C#N)(C#N)N=Cc1ccsc1` (stereo not drawn), the TGI is 29.1 µM in the assay with A498 renal; 33.1 µM with COLO 205 colon; 25.4 µM in the assay with HCT-116 colon; 16.2 µM in the assay on HL-60(TB) leukemia; 34.8 µM with HOP-62 NSCLC; 25.1 µM with HT29 colon. Also, the TGI in the assay with MOLT-4 leukemia was determined as 43.3 µM; in the assay on NCI/ADR-RES ovarian, 53.1 µM; with SK-MEL-5 melanoma, 27.7 µM; with SNB-19 CNS, 55.3 µM.
Take `COc1ccc(C2SC(N)=Nc3c2c(C)nn3C(=O)c2ccncc2)cc1` (stereo not drawn): the TGI with A498 renal, with COLO 205 colon, in the assay on HCT-116 colon, with HL-60(TB) leukemia, in the assay on HOP-62 NSCLC and with HT29 colon was above 100 µM each time. Moreover, the TGI in the assay on MOLT-4 leukemia, in the assay on NCI/ADR-RES ovarian, in the assay on SK-MEL-5 melanoma and in the assay with SNB-19 CNS was above 100 µM in each case.
For the compound `COc1c2occc2c(OC)c2c(=O)c(S(=O)(=O)NC(=O)Nc3ccc(Cl)cc3)coc12`, the TGI in the assay with A498 renal, with COLO 205 colon, in the assay on HCT-116 colon, in the assay with HL-60(TB) leukemia, with HOP-62 NSCLC and in the assay with HT29 colon was above 10 µM throughout. For the same compound, the TGI with MOLT-4 leukemia, with NCI/ADR-RES ovarian, with SK-MEL-5 melanoma and with SNB-19 CNS was above 10 µM throughout.
For the compound `CCCC1NC(C#N)(C#N)C(CCC)NC1(C#N)C#N` (stereo not drawn), the TGI in the assay on A498 renal is above 96.4 µM; in the assay with COLO 205 colon it was 12.7 µM; in the assay with HCT-116 colon, above 37.1 µM; in the assay with HL-60(TB) leukemia, 0.343 µM; in the assay with HOP-62 NSCLC, above 100 µM; in the assay on HT29 colon, above 55.7 µM. The TGI with MOLT-4 leukemia was 1.99 µM; with NCI/ADR-RES ovarian, 15.2 µM; with SK-MEL-5 melanoma, above 100 µM; in the assay on SNB-19 CNS it was above 100 µM.
For the compound `N/C(=N\N=C\c1ccc2c(c1)OCO2)NO`, the TGI was 56.5 µM with A498 renal; 40.3 µM in the assay with COLO 205 colon; 59.8 µM in the assay with HCT-116 colon; 36 µM with HL-60(TB) leukemia; 66.7 µM in the assay on HOP-62 NSCLC; above 100 µM in the assay on HT29 colon. Besides, the TGI was 77.5 µM in the assay with MOLT-4 leukemia, 23.1 µM in the assay on NCI/ADR-RES ovarian, 35.2 µM in the assay on SK-MEL-5 melanoma and above 100 µM in the assay on SNB-19 CNS.
For `Nn1c(Cc2ccc(Cl)cc2)n[nH]c1=O`, the TGI in the assay with A498 renal, in the assay on COLO 205 colon, in the assay with HCT-116 colon, in the assay with HL-60(TB) leukemia, in the assay on HOP-62 NSCLC and in the assay with HT29 colon was above 100 µM each time. Besides, the TGI in the assay with MOLT-4 leukemia, in the assay with NCI/ADR-RES ovarian, in the assay on SK-MEL-5 melanoma and in the assay on SNB-19 CNS was above 100 µM in each case.
As to `Cc1cccc2c1C(=O)C1(Cc3ccccc3C1=O)C2` (stereo not drawn), the TGI in the assay with A498 renal, with COLO 205 colon, in the assay with HCT-116 colon, in the assay with HL-60(TB) leukemia, in the assay on HOP-62 NSCLC and in the assay on HT29 colon was above 100 µM each time. Also, the TGI in the assay on MOLT-4 leukemia, in the assay with NCI/ADR-RES ovarian, in the assay on SK-MEL-5 melanoma and in the assay on SNB-19 CNS was above 100 µM throughout.
As for `CC1(C)C2CCC1(CS(=O)(=O)Nc1ccccc1)C(=O)C2` (stereo not drawn), the TGI in the assay on A498 renal, with COLO 205 colon, in the assay with HCT-116 colon, in the assay with HL-60(TB) leukemia, with HOP-62 NSCLC and in the assay on HT29 colon was above 100 µM each time. The TGI with MOLT-4 leukemia, in the assay on NCI/ADR-RES ovarian, with SK-MEL-5 melanoma and with SNB-19 CNS was above 100 µM throughout.
As for `CCSSCS(C)(=O)=O`, the TGI is 96.2 µM in the assay on A498 renal; 23.5 µM in the assay on COLO 205 colon; above 100 µM with HCT-116 colon; above 100 µM in the assay on HL-60(TB) leukemia; above 100 µM in the assay on HOP-62 NSCLC; above 100 µM in the assay with HT29 colon. In addition, the TGI is above 100 µM with MOLT-4 leukemia, 83.8 µM in the assay on NCI/ADR-RES ovarian, above 100 µM in the assay with SK-MEL-5 melanoma and above 100 µM in the assay on SNB-19 CNS.
`C/C(O)=C/c1nc2ccccc2nc1/C=C(/C)O`: the TGI amounted to 67.4 µM in the assay with A498 renal; 47.5 µM with COLO 205 colon; 39.3 µM in the assay with HCT-116 colon; 56.4 µM in the assay on HL-60(TB) leukemia; 67.1 µM in the assay with HOP-62 NSCLC; 43.3 µM with HT29 colon. For the same compound, the TGI is 46.5 µM in the assay on MOLT-4 leukemia, 93.2 µM with NCI/ADR-RES ovarian, 35.4 µM in the assay with SK-MEL-5 melanoma and above 100 µM in the assay on SNB-19 CNS.
Regarding `CC(C)(C)c1cc(C(O)(C(=O)O)C(=O)O)cc(C(C)(C)C)c1O`, the TGI with A498 renal, with COLO 205 colon, with HCT-116 colon, in the assay on HL-60(TB) leukemia, in the assay on HOP-62 NSCLC and with HT29 colon was above 100 µM in each case. Further, the TGI with MOLT-4 leukemia, in the assay on NCI/ADR-RES ovarian, with SK-MEL-5 melanoma and with SNB-19 CNS was above 100 µM in each case.
With `N#CCCNCCN(CCN(C(=O)Nc1ccccc1)c1ccccc1)C(=O)Nc1ccccc1`, the TGI is above 100 µM in the assay on A498 renal; 46.3 µM in the assay on COLO 205 colon; above 100 µM in the assay on HCT-116 colon; above 100 µM in the assay on HL-60(TB) leukemia; above 100 µM in the assay with HOP-62 NSCLC; above 100 µM in the assay with HT29 colon. For the same compound, the TGI was above 100 µM in the assay with MOLT-4 leukemia, above 100 µM with NCI/ADR-RES ovarian, 45 µM in the assay with SK-MEL-5 melanoma and above 100 µM in the assay on SNB-19 CNS.
`[O-][n+]1onc2c3nn(-c4ccccc4)nc3ccc21`: the TGI was above 100 µM in the assay with A498 renal; above 100 µM in the assay on COLO 205 colon; above 100 µM in the assay on HCT-116 colon; 8.68 µM in the assay on HL-60(TB) leukemia; above 100 µM with HOP-62 NSCLC; above 100 µM with HT29 colon. The TGI in the assay on MOLT-4 leukemia, in the assay on NCI/ADR-RES ovarian, in the assay on SK-MEL-5 melanoma and in the assay with SNB-19 CNS was above 100 µM each time.
With `CC(=O)Nc1ccc(S(=O)(=O)Nc2nnc(S(N)(=O)=O)s2)cc1`, the TGI with A498 renal, in the assay with COLO 205 colon, in the assay on HCT-116 colon, with HL-60(TB) leukemia, with HT29 colon and with MOLT-4 leukemia was above 100 µM each time. Further, the TGI in the assay on NCI/ADR-RES ovarian and in the assay with SNB-19 CNS was above 100 µM each time.
